In the NIST ThermoML archive (doi:10.1016/j.fluid.2009.10.018):

Key:
[1] = 101.33 kPa, Liquid, Pycnometric method
[2] = excess molar enthalpy (molar enthalpy of mixing); xn = mol fraction of the nth substance listed; conditions: 297.15 K, 101 kPa, Liquid, Constant Pressure Calorimeter

C1CCNCC1 [piperidine]
[1]
Conditions	mass density [kg/m3]
293.65 K	873.5
296.05 K	867.1
298.15 K	864.6
300.05 K	856.3
302.65 K	852.4
304.55 K	852.6
306.45 K	852.5
308.25 K	850.6
310.35 K	846.3
313.75 K	842.2
315.15 K	840.8
317.35 K	837.7
319.15 K	835.3
321.15 K	833.5
323.05 K	831.4

C1CCNCC1 [piperidine] + O
[2]
Conditions	excess molar enthalpy [kcal/mol]
x2 = 0	0
x2 = 0.05	-0.0853
x2 = 0.09	-0.123
x2 = 0.15	-0.18
x2 = 0.21	-0.268
x2 = 0.25	-0.35
x2 = 0.3	-0.4
x2 = 0.35	-0.437
x2 = 0.4	-0.461
x2 = 0.45	-0.475
x2 = 0.5	-0.511
x2 = 0.55	-0.532
x2 = 0.6	-0.53
x2 = 0.65	-0.522
x2 = 0.7	-0.495
x2 = 0.75	-0.469
x2 = 0.93	-0.234
x2 = 0.96	-0.159
x2 = 0.99	-0.0557

c1ccncc1 [pyridine]
[1]
Conditions	mass density [kg/m3]
293.95 K	981
295.35 K	979.2
297.25 K	977.9
299.15 K	975.3
301.25 K	972.8
303.25 K	971.7
305.15 K	969.9
307.25 K	967.9
309.25 K	965.2
311.35 K	963.6
313.15 K	961.6
315.35 K	959.8
317.55 K	956.3
319.55 K	953.9
321.15 K	953.1

c1ccncc1 [pyridine] + O
[2]
Conditions	excess molar enthalpy [kcal/mol]
x2 = 0	0
x2 = 0.05	-0.028
x2 = 0.1	-0.061
x2 = 0.15	-0.11
x2 = 0.2	-0.156
x2 = 0.25	-0.21
x2 = 0.3	-0.247
x2 = 0.35	-0.284
x2 = 0.4	-0.33
x2 = 0.45	-0.374
x2 = 0.5	-0.389
x2 = 0.55	-0.388
x2 = 0.6	-0.378
x2 = 0.65	-0.366
x2 = 0.7	-0.332
x2 = 0.73	-0.318
x2 = 0.89	-0.154
x2 = 0.92	-0.121
x2 = 0.95	-0.0804
x2 = 0.98	-0.0364

O [water] + C1CCNCC1
Conditions	excess molar enthalpy [kcal/mol]
[2], x1 = 1	0

O [water] + c1ccncc1
Conditions	excess molar enthalpy [kcal/mol]
[2], x1 = 1	0
